Laboratory results: patent US4970206A, “Pyroglutamic acid esters used as dermal penetration enhancers for drugs” (Merck & Co., Inc., priority 1989, dated 1990)
Like-named read-outs stand apart in the source and are kept apart here. Each block holds one molecule with its values, some of them ahead of it.

Columns and labels:
[1] = system: skin (dorsal surface) of fuzzy rats; experiment: Skin Irritation Study (modified Draize, 3-day occlusive dermal application); assay type: in vivo; parameters: key: modified Draize index, 0-8 (erythema 0-4 + edema 0-4); conditions: 3 DAY occlusion, 50 mg over 2 cm^2, maximum 8; for Primary Irritation Index (PII), T0-T72 hrs: irritation index ± SD (n)
Method: Fuzzy rats (Temple University) 150 to 200 g were used to study the dermal irritancy as the neat compounds. Test preparations (50 mg) were applied to circular gauze pads 1 mm thick and 16 mm in diameter, and affixed to the animals' dorsal surface with occlusive adhesive film (Adhesive Plaster for Patch Test, Kanebo, Ltd., Osaka, Japan). The occlusive dressings were removed after 3 or 7 days. Treated skin areas were then evaluated according to a modified Draize scoring method, and the irritation index was evaluated for each test site. The first or "primary irritation index" (PII) was an average value reflecting irritation both immediately after dressing removal, and 72 hours later. The "secondary irritation index" (SII) was determined 7 days after dressing removal. The maximum possible PII or SII was 8 with a total possible score of 4 erythema, and a total possible score of 4 for edema. A PII or SII less than or equal to 2 indicated a mild irritant, a PII or SII greater than 2 but less than or equal to 6 indicated a moderate irritant, and a PII greater than 6 indicated a severe irritant as shown in Table 1 below: […]

Rat plasma hydrolysis = assay type: in vitro ADME; conditions: 37° C., decanol generated, by GC, read-out: t 1/2 of enzymatic hydrolysis in rat plasma
Method: Freshly prepared rat plasma (2 ml) was mixed with decyl pyroglutamate (0.6 mg) and was maintained at 37° C. Aliquots were removed at different time intervals and vortexed with heptane (1 ml) containing dodecanol as an internal standard. The decanol produced by enzymatic hydrolysis was assayed by gas chromatography on a 6'×2 mm (id) column packed with OV-101 (methylsilicone) on gas chrom Q (100-120 mesh), programmed from 125° to 175° C.

[2] = Permeation enhancement of enalapril, clonidine and acyclovir using pyroglutamic esters; assay type: in vitro ADME, Elaphae obsolete (black rat snake); conditions: for Flux of acyclovir ± SD / % of acyclovir delivered in 48 hrs ± SD: acyclovir with enhancer; for Flux of clonidine ± SD / % of clonidine delivered in 48 hrs ± SD: clonidine with enhancer; for Flux of enalapril ± SD / % of enalapril delivered in 48 hrs ± SD: enalapril with enhancer; for % delivered in 48 hrs ± SD: no enhancer
Method: (§1) In the examples given below, the permeation enhancement was determined using an in vitro diffusion cell procedure. The molts of adult Elaphae obsolete (black rat snake) was used as the model for stratum corneum membrane (R. Ibuki, Ph.D. Thesis, University of Kansas, 1985). The shed snake skin has great similarities to human skin in terms of thickness, composition of constituents and structure and has been proposed as the most suitable model for human stratum corneum for permeability studies.
Glass diffusion cells consisting of a donor and receptor cells separated by the shed snake skin membrane were assembled using circular O-ring joints held together by spring clamps. The exposed membrane surface area of the diffusion cell measured 1.8 cm^2. Before being mounted in the diffusion cell approximately 25 mg of an ointment containing the therapeutic agent and the penetration enhancer was carefully applied to the membrane and was spread over the desired area. The receptor side was filled with approximately 8.5 ml of buffer solution consisting of 1.5×10^-1 M NaCl, 5×10^-4 NaH2 PO4 and 2.0×10^-4 M Na2 HPO4 adjusted to pH 7.2 with NaOH. The diffusion cell was immersed vertically in a water bath maintained at 32°±1° C. The receptor cell was stirred constantly with a magnetic stirrer. To determine the amount of compound penetrated through the snake skin membrane from the upper chamber, 0.2 ml samples were withdrawn at varying intervals from the receptor chamber using a syringe. An equal amount of fresh buffer was replenished during sampling. The concentration of drug penetrated in each diffusion cell was measured using high pressure liquid chromatography. […]

[3] = assay type: in vitro ADME, Elaphae obsolata (black rat snake); conditions: n = 5; for Flux of 2,3-dihydro-5-hydroxy-6-(o-hydroxymethylcinnamyl)benzofuran ± SD / % of 2,3-dihydro-5-hydroxy-6-(o-hydroxymethylcinnamyl)benzofuran delivered in 48 hrs ± SD: 1% (w/w) drug with 15% (w/w) enhancer; for Flux of 2,3-dihydro-5-hydroxy-6-(o-hydroxymethylcinnamyl)benzofuran ± SD: 32°
Method: The transport of 2,3-dihydro-5-hydroxy-6-(o-hydroxymethylcinnamyl)benzofuran, through shed snake skin, which has been reported to be a good model for human stratum corneaum in terms of thickness, compositional features, structure and permeability, was measured in the presence of decyl, dodecyl and oleyl esters of L-pyroglutamic acid used as penetration enhancers.
Because of the poor aqueous solubility of 2,3-dihydro 5-hydroxy-6-(o-hydroxymethylcinnamyl)benzofuran (<0.0002 mg/ml at 32°), 20% propyleneglycol in isotonic pH 7.2 phosphate buffer was used as the receptor medium. […] A weighed amount of a petrolatum ointment (30-35 mg) containing 1% (w/w) of 2,3-dihydro-5-hydroxy-6-(o-hydroxymethylcinnamyl)benzofuran with or without 15% (w/w) of the permeation enhancer was applied to 1.76 cm^2 area of shed skin of adult Elaphae obsolata (black rat snake), and held between the donor and receptor compartments of a diffusion cell by O-rings. […] The diffusion cells were maintained at 32°±1° C. The amount of drug diffused into the receptor chamber was measured by HPLC using acetonitrile-water (2:3) at a flow rate of 1 ml/min as mobile phase, a C18 column and a UV detector set at […]. The results (Table IV below) are averages of five diffusion cells for each experiment.

[4] = In vitro diffusion cell permeation through shed snake skin (Example 4); assay type: in vitro ADME, Elaphae obsolete (black rat snake); conditions: 32°; for flux of indomethacin: pH 7.2
Method: as §1
Glass diffusion cells consisting of a donor and receptor cells separated by the shed snake skin membrane were assembled using circular O-ring joints held together by spring clamps. The exposed membrane surface area of the diffusion cell measured 1.8 cm^2. Before being mounted in the diffusion cell approximately 25 mg of an ointment containing the therapeutic agent and the penetration enhancer was carefully applied to the membrane and was spread over the desired area. The receptor side was filled with approximately 8.5 ml of buffer solution consisting of 1.5×10^-1 M NaCl, 5×10^-4 NaH2 PO4 and 2.0×10^-4 M Na2 HPO4 adjusted to pH 7.2 with NaOH. The diffusion cell was immersed vertically in a water bath maintained at 32°±1° C. The receptor cell was stirred constantly with a magnetic stirrer. To determine the amount of compound penetrated through the snake skin membrane from the upper chamber, 0.2 ml samples were withdrawn at varying intervals from the receptor chamber using a syringe. An equal amount of fresh buffer was replenished during sampling. The concentration of drug penetrated in each diffusion cell was measured using high pressure liquid chromatography. The results reported for each experiment are the average values from 5 replicate diffusion cells.
The ointments used for the experiments contained varying concentrations of the drug and penetration enhancing agent. The drug was dispersed in the enhancer and this was then mixed with white petrolatum USP using a vortex mixer around 55° C. The ointments were kept in a water bath at 32°±1° C. for 1 day before use in in vitro studies. See Tables II and III below for the results of penetration enhancement effects.

Aqueous solubility = assay type: physicochemical; conditions: water, at 32°
[5] = weight ratio of enhancer/indomethacin 15.0
[6] = dodecyl pyroglutamate as enhancer, weight ratio of enhancer/drug 15
[7] = dodecyl pyroglutamate, weight ratio of enhancer/drug 0 (no enhancer)

Compound: CCCCCCCCCCOC(=O)[C@@H]1CCC(=O)N1 [Decyl pyroglutamate, Decyl Pyroglutamate]
Primary Irritation Index (PII), T0-T72 hrs [1]: 0.9 ± 1.1
Secondary Irritation Index (SII) at 7 days [1]: 0
half-life (Rat plasma hydrolysis): 1.7 min
Flux of acyclovir ± SD [2]: 0.063 ± 0.01 μg/cm^2 /hr
% of acyclovir delivered in 48 hrs ± SD [2]: 0.25 ± 0.03%
Flux of clonidine ± SD [2]: 0.31 ± 0.13 μg/cm^2 /hr
% of clonidine delivered in 48 hrs ± SD [2]: 8.1 ± 2.1%
Flux of enalapril ± SD [2]: 0.15 ± 0.01 μg/cm^2 /hr
% of enalapril delivered in 48 hrs ± SD [2]: 4.3 ± 0.9%
Flux of 2,3-dihydro-5-hydroxy-6-(o-hydroxymethylcinnamyl)benzofuran ± SD [3]: 0.70 ± 0.06 μg/cm^2 /hr
% of 2,3-dihydro-5-hydroxy-6-(o-hydroxymethylcinnamyl)benzofuran delivered in 48 hrs ± SD ([3]; 48 hrs): 16.1 ± 3.0%
flux of indomethacin [4, 5]: 0.477 μg/cm^2 /hr

Compound: Nc1nc2c(ncn2COCCO)c(=O)[nH]1 [Acyclovir, reference compound]
% delivered in 48 hrs ± SD ([2]; acyclovir): not detectable

Compound: CC(C)NCC(O)COc1cccc2ccccc12 (centres unmarked) [Propranolol]
flux of drug [4, 6]: 7.410 μg/cm^2 /hr
flux of drug [4, 7]: 3.680 μg/cm^2 /hr

Compound: CC(C)=CCCC(C)=CCCC(C)=CCOC(=O)[C@@H]1CCC(=O)N1 [Farnesyl pyroglutamate]
Primary Irritation Index (PII), T0-T72 hrs [1]: 0
Secondary Irritation Index (SII) at 7 days [1]: 0
flux of indomethacin [4, 5]: 0.317 μg/cm^2 /hr

Compound: CCCCCCCCCCCCN1CCCCCC1=O [Azone, reference compound]
Primary Irritation Index (PII), T0-T72 hrs [1]: 4.0 ± 1.9
Secondary Irritation Index (SII) at 7 days [1]: 0

flux of indomethacin ([4]; no enhancer): non-detectable
Compound: COc1ccc2c(c1)c(CC(=O)O)c(C)n2C(=O)c1ccc(Cl)cc1 [Indomethacin, indomethacin]

Compound: CCCCCCCCCCCCOC(=O)[C@@H]1CCC(=O)N1 [Dodecyl pyroglutamate]
Primary Irritation Index (PII), T0-T72 hrs [1]: 0
Secondary Irritation Index (SII) at 7 days [1]: 0
Flux of acyclovir ± SD [2]: 0.072 ± 0.04 μg/cm^2 /hr
% of acyclovir delivered in 48 hrs ± SD [2]: 0.26 ± 0.15%
Flux of clonidine ± SD [2]: 0.63 ± 0.21 μg/cm^2 /hr
% of clonidine delivered in 48 hrs ± SD [2]: 13.2 ± 0.6%
Flux of enalapril ± SD [2]: 0.51 ± 0.09 μg/cm^2 /hr
% of enalapril delivered in 48 hrs ± SD [2]: 9.9 ± 2.7%
Flux of 2,3-dihydro-5-hydroxy-6-(o-hydroxymethylcinnamyl)benzofuran ± SD [3]: 0.61 ± 0.04 μg/cm^2 /hr
% of 2,3-dihydro-5-hydroxy-6-(o-hydroxymethylcinnamyl)benzofuran delivered in 48 hrs ± SD ([3]; 48 hrs): 13.4 ± 1.5%
flux of indomethacin [4, 5]: 0.630 μg/cm^2 /hr

Compound: CCCCCCCC/C=C\CCCCCCCCOC(=O)[C@@H]1CCC(=O)N1 [Oleyl pyroglutamate]
Primary Irritation Index (PII), T0-T72 hrs [1]: 0.1 ± 0.3
Secondary Irritation Index (SII) at 7 days [1]: 0
Flux of clonidine ± SD [2]: 0.26 ± 0.15 μg/cm^2 /hr
% of clonidine delivered in 48 hrs ± SD [2]: 4.4 ± 1.4%
Flux of enalapril ± SD [2]: 0.92 ± 0.22 μg/cm^2 /hr
% of enalapril delivered in 48 hrs ± SD [2]: 18.7 ± 5.4%
Flux of 2,3-dihydro-5-hydroxy-6-(o-hydroxymethylcinnamyl)benzofuran ± SD [3]: 0.95 ± 0.09 μg/cm^2 /hr
% of 2,3-dihydro-5-hydroxy-6-(o-hydroxymethylcinnamyl)benzofuran delivered in 48 hrs ± SD ([3]; 48 hrs): 21.7 ± 1.1%
flux of indomethacin [4, 5]: 0.450 μg/cm^2 /hr

Compound: Clc1cccc(Cl)c1N=C1NCCN1 [Clonidine, reference compound]
% delivered in 48 hrs ± SD ([2]; clonidine, n = 12): 1.1 ± 0.3%

Compound: OCc1ccccc1C=CCc1cc2c(cc1O)CCO2 [2,3-dihydro-5-hydroxy-6-(o-hydroxymethylcinnamyl)benzofuran, reference compound]
Flux ± SD ([3]; 1% (w/w) drug, no enhancer): 0.19 μg/cm^2 /hr
% delivered in 48 hrs ± SD ([3]; 1% (w/w) drug, no enhancer, 48 hrs): 4.24 ± 0.53%
solubility (Aqueous solubility): < 0.2 µg/mL

Compound: C[C@]12CCC(=O)C=C1CC[C@@H]1[C@@H]2[C@@H](O)C[C@@]2(C)[C@H]1CC[C@]2(O)C(=O)CO [Hydrocortisone]
flux of drug [4, 6]: 0.338 μg/cm^2 /hr
flux of drug [4, 7]: Not detectable
